Experimental data as given in patent publication EP4711366A1, “PYRIMIDO MACROHETEROCYCLIC COMPOUND AS WEE1-YES DUAL-TARGET INHIBITOR AND USE THEREOF” (Mindrank AI Ltd., priority 2023, dated 2024).
pIC50: −log10 of the molar value.

Legend:
A427 cells = experiment: Tumor cell proliferation inhibitory activity assay (CCK-8); format: cell-based, Human; conditions: for pIC50: CCK-8; for activity in inhibiting cancer cell proliferation compared with reference compound Debio 0123 or ZN-c3: comparison in words
Procedure: Human lung cancer A427 cells are cancer cells reported to be sensitive to wee1 inhibitors. In this assay, the anti-cancer effects of the compounds of the present disclosure were verified by assessing the activity of the test substances in inhibiting A427 cell proliferation.
A427 cells were cultured according to the cell culture instructions, and cells in the logarithmic growth phase were collected, counted, resuspended in a complete culture medium, and inoculated into a 96-well plate at a cell concentration of 100 µL/3000 cells/well. The cells were incubated in an incubator at 37 °C with 100% relative humidity and 5% CO2 for 24 h.
The compounds to be tested were dissolved in DMSO and diluted 4-fold with a culture medium from 10 µM to 10 concentration gradients.
The culture medium waste was pipetted off, and 100 µL of the formulated culture medium of the compound to be tested was added to each well. The cells were incubated in an incubator at 37 °C with 100% relative humidity and 5% CO2 for 72 h.
The plate was taken out, the CCK-8 reagent was added at 10 µL/well, and the plate was incubated in an incubator at 37 °C for 2-4 h.
The cell growth inhibition rates of the drugs were calculated using the following formula: Cell growth inhibition rate% = [(Ac−As)/(Ac−Ab)] × 100% [formula] • As: the OA of the samples (cells + CCK-8 + compounds to be tested) • Ac: the OA of the normal growth cell control (cells + CCK-8) • Ab: the OA of the blank control (culture medium + CCK-8)
IC50 curve fitting was performed using the software Graphpad Prism 6 and the calculation formula XY-analysis/Nonlinear regression(curve fit)/Dose response-Inhibition/log(inhibitor)vs. response-Variable slope(four parameters), and the IC50 values were calculated. Table 1. Data analysis and results for some representative compounds

Wee1 kinase = Wee1 kinase (Homo sapiens, UniProt P30291); experiment: WEE1 protein kinase inhibitory activity assay (ADP-GLO luminescence); format: biochemical; conditions: Wee1 10 ng/well, ATP 10 µM, 3 h, 37 °C
Chain of Wee1 kinase (P30291 whole entry): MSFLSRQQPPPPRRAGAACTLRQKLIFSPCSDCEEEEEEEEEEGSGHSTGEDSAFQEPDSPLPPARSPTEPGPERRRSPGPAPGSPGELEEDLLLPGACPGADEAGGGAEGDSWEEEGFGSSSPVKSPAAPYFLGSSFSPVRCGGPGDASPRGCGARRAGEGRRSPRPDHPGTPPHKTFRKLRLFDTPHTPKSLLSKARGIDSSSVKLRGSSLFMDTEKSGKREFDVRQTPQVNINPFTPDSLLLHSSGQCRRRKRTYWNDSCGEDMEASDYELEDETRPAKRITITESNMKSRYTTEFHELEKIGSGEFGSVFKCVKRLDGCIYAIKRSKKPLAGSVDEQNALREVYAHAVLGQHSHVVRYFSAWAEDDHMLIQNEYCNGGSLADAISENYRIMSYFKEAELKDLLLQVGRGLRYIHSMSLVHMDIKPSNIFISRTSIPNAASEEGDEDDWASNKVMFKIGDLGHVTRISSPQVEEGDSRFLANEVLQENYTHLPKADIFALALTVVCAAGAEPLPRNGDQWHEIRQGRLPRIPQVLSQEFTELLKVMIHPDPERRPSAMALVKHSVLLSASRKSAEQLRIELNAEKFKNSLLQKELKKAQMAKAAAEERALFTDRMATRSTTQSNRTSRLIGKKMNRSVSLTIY
Procedure: The influence of the compound MRANK-106 of the present disclosure on the kinase activity of Weel was assessed using an in vitro kinase reaction system.
Table 2-1. Information about reagents and consumables
① 1× kinase buffer: A 5× kinase buffer was diluted with ddH2O to make a 1× kinase buffer. Table 2-3. The reagent components added to the 1× kinase buffer
③ 5× enzyme working solution: The optimization of the enzyme concentration had been completed in previous work, and the concentration of the reagent used in the screening is shown in Table 2-4. A 5× enzyme working solution of the enzyme was formulated using the 1× kinase buffer.
④ Compound formulation: A 10 mM mother liquor was formulated using DMSO, aliquoted, and then stored at -20 °C. Immediately before use, the mother liquor was thawed, diluted with DMSO to 1 mM, serially diluted 4-fold to 10 concentration points, and then 40-fold diluted with the 1× kinase buffer to give a 2.5× working solution. Table 2-4. The experimental conditions for the kinase activity assay
After the above reagents were formulated and equilibrated to room temperature, 4 µL of the diluted solution of the compound to be tested and 2 µL of the formulated enzyme solution were added to reaction wells. After shaking and centrifugation, the plate was incubated at room temperature for 15 min, and 4 µL of the ATP solution was then added to start a kinase reaction. After 3 h of reaction at 37 °C, 10 µL of an ADP-GLO reagent was added. After thorough mixing, the mixture was left to react at room temperature for 40 min, and 20 µL of a detection reagent was then added. After 30 min of reaction at room temperature, the luminescence signals were detected using a SpectraMax L instrument. Two independent duplicate assays were performed. The inhibition rate of each well was calculated based on all activity wells and background signal wells, with an average calculated for duplicate wells. Meanwhile, the inhibition rate was plotted using the professional graphing and analysis software PRISM 9.0, and the IC50 was calculated.
The inhibition rates of the compounds to be tested against the kinase activity of Wee1 were calculated using the following formula: Inhibition rate% = (Lumvehicle−Lumcompound)/(Lumvehicle−Lumblank) × 100% [formula] • Lumcompound: the luminescence of the sample treatment groups • Lumvehicle: the luminescence of the solvent control group • Lumblank: the luminescence of the blank group

[1] = Homo sapiens, A-427, 72 h compound incubation

`Cc1cc(Nc2ncc3c(=O)n4n(c3n2)-c2cccc(n2)[C@](C)(O)CCC=CC4)ccc1OC1CCN(C2COC2)CC1` [Compound 205, (R,Z)-12-hydroxy-12-methyl-2-((3-methyl-4-((1-(oxetan-3-yl)piperidin-4-yl)oxy)phenyl)amino)-7,10,11,12-tetrahydro-5H-13,17-(azeno)pyrimido[4',5':3,4]pyrazolo[1,2-a][1,2]diazacyclotridecin-5-one] was tested, and the pIC50 (A427 cells; [1]) was 6.79.
`Cc1cc(Nc2ncc3c(=O)n4n(c3n2)-c2cccc(n2)C(C)(O)CC/C=C\C4)ccc1NC1CCN(C)CC1` (single isomer, unassigned) [Compound 203A] was tested, and the pIC50 (Wee1 kinase) was 7.88, the pIC50 (A427 cells; [1]) was 7.15 and the “activity in inhibiting cancer cell proliferation compared with reference compound Debio 0123 or ZN-c3” value (A427 cells) was “several times to several dozen times higher”.
`Cc1cc(Nc2ncc3c(n2)N(C)CN(c2c(Cl)cccc2Cl)C3=O)ccc1C1CCN(C)CC1` [Debio 0123, reference compound] gave a pIC50 (A427 cells; 72 h compound incubation) of 5.79.
`CN1CCN(Cc2ccc(Nc3ncc4c(=O)n5n(c4n3)-c3cccc(n3)C(C)(O)CCC=CC5)cc2)CC1` (stereo not drawn) [Compound 214, (Z)-12-hydroxy-12-methyl-2-((4-((4-methylpiperazin-1-yl)methyl)phenyl)amino)-7,10,11,12-tetrahydro-5H-13,17-(azeno)pyrimido[4',5':3,4]pyrazolo[1,2-a][1,2]diazacyclotridecin-5-one] showed a pIC50 (A427 cells; [1]) of 6.84.
For `COc1cc(Nc2ncc3c(=O)n4n(c3n2)-c2cccc(n2)[C@](C)(O)CCC=CC4)ccc1OC1CCN(C)CC1` [Compound 143, (R,Z)-12-hydroxy-2-((3-methoxy-4-((1-methylpiperidin-4-yl)oxy)phenyl)amino)-12-methyl-7,10,11,12-tetrahydro-5H-13,17-(azeno)pyrimido[4',5':3,4]pyrazolo[1,2-a][1,2]diazacyclotridecin-5-one], the pIC50 (A427 cells; [1]) was 7.19 and the “activity in inhibiting cancer cell proliferation compared with reference compound Debio 0123 or ZN-c3” value (A427 cells) was “several times to several dozen times higher”.
`Cc1cc(Nc2ncc3c(=O)n4n(c3n2)-c2cccc(n2)[C@](C)(O)CCCCC4)ccc1OC1CCN(C)CC1` [Compound 28, (R)-12-hydroxy-12-methyl-2-((3-methyl-4-((1-methylpiperidin-4-yl)oxy)phenyl)amino)-7,8,9,10,11,12-hexahydro-5H-13,17-(azeno)pyrimido[4',5':3,4]pyrazolo[1,2-a][1,2]diazacyclotridecin-5-one] gave a pIC50 (A427 cells; [1]) of 6.82.
